Test results: patent US7138525B2, “N-substituted-2-oxodihydropyridine derivatives” (Banyu Pharmaceutical Co., Ltd., priority 2002, dated 2006)
pIC50: −log10 of the molar value. Read-outs that look alike come from different tables or passages of the source.

Key:
[1] = target: T1, human NPY Y5 receptor (Homo sapiens, UniProt Q15761); experiment: NPY binding inhibition test ([125I]peptideYY binding to membranes of NPY Y5 receptor expressing cells); details: 25° C., 2 hours, membrane of NPY Y5 receptor expressing cells, read-out: IC50 against specific peptideYY binding
T1 construct: expressed in transfected cells; host or cells: COS-7, CHO and LM(tk-) cells (membrane preparation)
T1 sequence (Q15761 1-445): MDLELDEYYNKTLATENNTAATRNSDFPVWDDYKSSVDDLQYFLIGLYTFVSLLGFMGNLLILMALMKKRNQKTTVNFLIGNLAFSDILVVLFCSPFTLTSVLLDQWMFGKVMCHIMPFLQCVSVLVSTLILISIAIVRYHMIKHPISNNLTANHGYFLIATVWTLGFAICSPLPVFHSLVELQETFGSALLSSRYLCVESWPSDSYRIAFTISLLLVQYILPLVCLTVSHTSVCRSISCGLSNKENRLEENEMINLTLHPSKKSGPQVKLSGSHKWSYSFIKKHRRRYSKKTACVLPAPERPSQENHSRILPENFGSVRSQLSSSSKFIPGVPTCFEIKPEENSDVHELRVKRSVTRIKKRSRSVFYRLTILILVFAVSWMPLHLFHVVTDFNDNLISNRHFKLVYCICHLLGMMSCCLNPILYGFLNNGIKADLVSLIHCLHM
Description: cDNA sequence encoding human NPY Y5 receptor (c.f. International patent publication number WO96/16542) was cloned into expression vectors pcDNA3, pRc/RSV (made by Invitrogen Inc.) and pCI-neo (made by Promega Inc.). The expression vectors thus obtained were transfected to host cells COS-7, CHO and LM(tk−) (American Type Culture Collection) by cationic lipid method (Proceedings of the National Academy of Sciences of the United States of America, vol. 84: p. 7413(1987)) to give NPY Y5 receptor expression cells.
A membrane sample prepared from the cells which expressed NPY Y5 receptor was incubated together with a test compound and [^125I]peptideYY (made by NEN) (20,000 cpm) in an assay buffer (25 mM Tris buffer, pH7.4, containing 10 mM magnesium chloride, 1 mM phenylmethylsulfonyl fluoride, 0.1% bacitracin and 0.5% bovine serum albumin) at 25° C. for 2 hours, then filtered through a glass filter GF/C and washed with 5 mM Tris buffer (pH7.4) containing 0.3% BSA. The radio activity of the cake on the glass filter was measured. Non-specific binding was measured in the presence of 1 μM peptide YY, and a 50% Inhibitory Concentration (IC50) of the test compound against specific peptideYY binding was determined (Endocrinology, vol. 131: p. 2090(1992)).

[2] = Pharmacokinetics test (plasma concentration by LC/MS/MS); type: in vivo; details: rat, male SD rats, overnight fasting, oral or intravenous administration
Method: A test compound was orally or intravenously administered to male SD rats (7–10 weeks old, 200–400 g) under the overnight fasting condition. About 100 μL of blood was collected from the tail vein by heparinized capillary at designated time. The blood was centrifuged (4° C., 6,000 r.p.m., 10 minutes) to obtain the plasma. 3-fold amount of ethanol containing an internal standard was added to plasma. The mixture was stirred, allowed to stand at −20° C. for 20 minutes, and then centrifuged (4° C., 10,000 r.p.m., 10 minutes). The supernatant was analyzed by LC/MS/MS, and the concentration of the test compound in the plasma was measured using a relative calibration curve.

[3] = Brain/cerebrospinal fluid transport test; type: in vivo; details: male SD rats, 2 hours after oral administration (10 mg/kg); for concentration at 2 h: rat
Method: A test compound was orally or intravenously administered to male SD rats (7–10 weeks old, 200–400 g), and whole blood was collected from the abdominal aorta using a heparin-treated syringe under the ether anesthesia at designated time. Then, the head skin was cut out, and a dental 30 G needle was inserted between the cervical vertebrae, and it was further inserted into the cavum subarachnoideale. After 50 to 100 μL cerebrospinal fluid had been collected by a 1 ml-syringe through a tube connected to dental 30 G needle, the brain was extracted. The blood sample was centrifuged (4° C., 6,000 r.p.m., 10 minutes) to obtain the plasma. 3-fold amount of ethanol containing an internal standard was added, and stirred. The brain sample was homogenized after addition of 2 ml water, an aliquot of the homogenate was taken and 3-fold amount of ethanol containing an internal standard was added, and stirred. The cerebrospinal fluid was stirred after adding 3-fold amount of ethanol containing an internal standard. These samples were allowed to stand at −20° C. for 20 minutes, and then centrifuged (4° C., 12,000 g, 10 minutes). The supernatant was analyzed by LC/MS/MS, and the concentration of the test compound in the plasma, brain, and cerebrospinal fluid were measured by the method using a relative calibration curve.

Structure (SMILES)	pIC50 [1]	also measured
C[C@@H]1NC(c2ccc(=O)n(C(F)F)c2)=NC1(c1ccc(Cl)cc1)c1ccnc(F)c1 (single isomer, unassigned) [Example 1-21]	8.57	
C[C@@H]1NC(c2ccc(=O)n(C(F)F)c2)=NC1(c1ccc(F)cc1)c1ccc(C(F)F)nc1 (single isomer, unassigned) [Example 1-42]	8.55	
CCc1cc(C2=N[C@@](c3ccc(F)cc3)(c3ccc(F)nc3)[C@H](C)N2)cn(C)c1=O [Example 1-39, 3-ethyl-5-[(4S,5S)-4-(4-fluorophenyl)-4-(6-fluoro-3-pyridyl)-5-methyl-2-imidazolin-2-yl]-1-methyl-2-pyridone]	8.59	
CCc1cc(C2=N[C@@](c3ccc(F)cc3)(c3ccc(F)nc3)[C@H](C)N2)cn(C(F)F)c1=O [Example 1-70, 1-difluoromethyl-3-ethyl-5-[(4S,5S)-4-(4-fluorophenyl)-4-(6-fluoro-3-pyridyl)-5-methyl-2-imidazolin-2-yl]-2-pyridone]	8.54	
CCn1cc(C2=NC(c3ccc(F)cc3)(c3ccc(C(F)(F)F)nc3)[C@H](C)N2)cc(Cl)c1=O (single isomer, unassigned) [Example 1-11]	8.64	
CCCn1cc(C2=NC(c3ccc(F)cc3)(c3ccc(C(F)(F)F)nc3)[C@H](C)N2)ccc1=O (single isomer, unassigned) [Example 1-9]	8.82	
CCn1cc(C2=NC(c3ccc(F)cc3)(c3ccc(C(F)(F)F)nc3)[C@H](C)N2)cc(F)c1=O (single isomer, unassigned) [Example 1-29]	8.54	
CCn1cc(C2=NC(c3ccc(F)cc3)(c3ccc(C(F)(F)F)nc3)[C@H](C)N2)ccc1=O (single isomer, unassigned) [Example 1-8]	8.68	
C[C@@H]1NC(c2ccc(=O)n(C(F)F)c2)=NC1(c1ccc(F)cc1)c1ccc(C(F)(F)F)nc1 (single isomer, unassigned) [Example 1-7]	8.57	bioavailability [2]: 94%; half-life [2]: 8.5 h; concentration in the brain [3]: 2.48 nmol/g; concentration at 2 h ([3]; cerebrospinal fluid, read-out: concentration in the cerebrospinal fluid): 150 nM; concentration at 2 h ([3]; plasma, read-out: concentration in the plasma): 3170 nM

Further lines, with some results ahead:

pIC50 [1]	Structure (SMILES)	also measured
8.55	CCn1cc(C2=NC(c3ccc(F)cc3)(c3ccc(C(F)F)nc3)[C@H](C)N2)cc(F)c1=O (single isomer, unassigned) [Example 1-45]	
8.60	COn1cc(C2=N[C@](c3ccc(F)cc3)(c3ccc(C(F)(F)F)nc3)[C@H](C)N2)ccc1=O [Example 1-53, 5-[(4R,5S)-4-(4-fluorophenyl)-5-methyl-4-(6-trifluoromethyl-3-pyridyl)-2-imidazolin-2-yl]-1-methoxy-2-pyridone]	
8.55	CCn1cc(C2=NC(c3ccc(Cl)cc3)(c3ccnc(F)c3)[C@H](C)N2)ccc1=O (single isomer, unassigned) [Example 1-23]	
8.54	CCn1cc(C2=N[C@@](c3ccc(F)cc3)(c3ccc(F)nc3)[C@H](C)N2)cc(F)c1=O [Example 1-25, 1-ethyl-3-fluoro-5-[(4S,5S)-4-(4-fluorophenyl)-4-(6-fluoro-3-pyridyl)-5-methyl-2-imidazolin-2-yl]-2-pyridone]	
